{
  "source": "EPA's ToxValDB 9.5 (doi:10.2903/j.efsa.2010.1783)",
  "key": {"Oncorhynchus mykiss": {"system": "Oncorhynchus mykiss", "conditions": "acute; duration: 96 hours; mortality"}, "Rattus norvegicus": {"system": "Rattus norvegicus", "conditions": "acute; oral; mortality"}, "Coturnix japonica": {"system": "Coturnix japonica", "conditions": "reproduction developmental; duration: 20 weeks"}, "Anas platyrhynchos": {"system": "Anas platyrhynchos", "conditions": "acute; oral; unspecified; mortality"}, "Colinus virginianus": {"system": "Colinus virginianus", "conditions": "acute, oral, mortality"}, "Tagia sp.": {"system": "Tagia sp.", "conditions": "acute; duration: 14 days; mortality"}, "Oryctolagus sp.": {"system": "Oryctolagus sp.", "conditions": "subchronic; duration: 90 days; oral; hematological"}, "Daphnia magna": {"system": "Daphnia magna", "conditions": "acute; duration: 48 hours; mortality"}},
  "data": [
    {"smiles": "O=c1oc2ccccc2c(O)c1C(CC(O)c1ccc(-c2ccc(Br)cc2)cc1)c1ccccc1", "note": "(centres undefined) [Bromadiolone]", "values": [
      {"measurement": "LC50", "setting": "Oncorhynchus mykiss", "result": "> 8", "unit": "µg/mL"},
      {"measurement": "LD50", "setting": "Rattus norvegicus", "result": "< 0.84", "unit": "mg/kg"},
      {"measurement": "NOEL", "setting": "Coturnix japonica", "result": 0.011, "unit": "mg/kg-day"},
      {"measurement": "LD50", "setting": "Anas platyrhynchos", "result": 1290, "unit": "mg/kg"},
      {"measurement": "LD50", "setting": "Colinus virginianus; duration: 5 days, diet", "result": 8.3, "unit": "mg/kg-day"},
      {"measurement": "LD50", "setting": "Colinus virginianus", "result": 138, "unit": "mg/kg"},
      {"measurement": "LC50", "setting": "Tagia sp.", "result": "> 4.74", "unit": "mg/kg"},
      {"measurement": "NOAEL", "setting": "Oryctolagus sp.", "result": 0.5, "unit": "mg/kg-day"},
      {"measurement": "LC50", "setting": "Daphnia magna", "result": 2, "unit": "µg/mL"}
    ]}
  ]
}
